For one data set, the target named is T1, Human CCR3 (Homo sapiens, UniProt P51677).
T1 construct: The cloned CCR3 cDNA was constructed with pcDNA3 vector and transfected into a IC562 cell line; expressed in transfected cells
T1 sequence (P51677 1-355): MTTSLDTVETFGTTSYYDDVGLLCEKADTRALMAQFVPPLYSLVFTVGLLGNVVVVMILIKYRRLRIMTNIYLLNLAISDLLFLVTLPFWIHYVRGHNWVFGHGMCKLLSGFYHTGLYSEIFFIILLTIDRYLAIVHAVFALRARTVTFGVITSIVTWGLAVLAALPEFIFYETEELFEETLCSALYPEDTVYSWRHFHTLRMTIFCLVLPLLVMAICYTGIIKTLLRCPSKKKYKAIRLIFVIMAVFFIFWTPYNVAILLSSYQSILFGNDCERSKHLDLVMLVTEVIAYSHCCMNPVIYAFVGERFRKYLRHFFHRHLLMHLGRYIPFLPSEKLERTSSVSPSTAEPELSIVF
The data set is described as follows: Calcium mobilization assay, eotaxin-stimulated. Type of data set: cell-based. The following applies: human CCR3-transformed K562 cells, 10 nM eotaxin; compounds of about 40 to 90% purity; read-out: Activity grade Ca2+ (IC50 class). The gist of the method:
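Eotaxin (10 nM final) triggered calcium flux, monitored 60 s with Fluo-3AM, in butyrate-pretreated (5 mM, 20–24 h) CCR3-transfected K562 cells. Compounds preincubated 10 min; percent inhibition per concentration yielded IC50.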

One may read the IC50 as the concentration that gives 50% inhibition. By melting point is commonly meant the temperature of the solid-liquid transition. Compound `Cc1cc(C)cc(Oc2ccc(NC(=O)Cc3ccccc3)cc2S(=O)(=O)N2CCNCC2)c1` [Example 7-1, N-[4-(3,5-dimethylphenoxy)-3-(1-piperazinylsulfonyl)phenyl]-2-phenylacetamide] came in with a melting point of 228 to 230 °C. For the same compound, on Human CCR3, the IC50 was greater than 10 µM.
In turn, `CC(C)c1cccc(Oc2ccc([N+](=O)[O-])cc2S(=O)(=O)N2CCNCC2)c1.Cl` [Example 1-9] gave a melting point of 168 to 170 °C. The IC50 on Human CCR3 was less than 1 µM.
The matching figures for `O=[N+]([O-])c1ccc(Oc2cc(Br)cc(Br)c2)c(S(=O)(=O)N2CCNCC2)c1` [Example 1-76]: 205 °C and less than 1 µM.
The compound `Cc1cc(Oc2ccc([N+](=O)[O-])cc2S(=O)(=O)N2CCNCC2)cc(C)c1Cl` [Example 1-79] returned a melting point of 178 to 179 °C. For the same compound, the IC50 at Human CCR3 was less than 1 µM.
For `Cc1ccc(C)c(Oc2ccc([N+](=O)[O-])cc2S(=O)(=O)N2CCNCC2)c1.Cl` [Example 1-64] the same measures were 141 °C and less than 1 µM.
With `Cc1cc(Oc2ccc([N+](=O)[O-])cc2S(=O)(=O)N2CCNCC2)ccc1Cl.Cl` [Example 1-60], the melting point was found to be 204 °C. Further, the IC50 on Human CCR3 fell in the range of 1 to 10 µM.
For `CC(C)(C)c1cc(Oc2ccc([N+](=O)[O-])cc2S(=O)(=O)N2CCNCC2)cc(C(C)(C)C)c1.Cl` [Example 1-7] the same measures were 141 to 143 °C and greater than 10 µM.
In the case of `Cl.O=[N+]([O-])c1ccc(Oc2cccc3ccccc23)c(S(=O)(=O)N2CCNCC2)c1` [Example 1-11], the melting point fell in the range of 196 to 198 °C. At Human CCR3, the IC50 is less than 1 µM.
For `CCCCc1ccccc1Oc1ccc([N+](=O)[O-])cc1S(=O)(=O)N1CCNCC1.Cl` [Example 1-40] the same measures were 140 to 150 °C and less than 1 µM.
The matching figures for `Cc1ccc(Oc2ccc([N+](=O)[O-])cc2S(=O)(=O)N2CCNCC2)cc1C.Cl` [Example 1-63]: 142 °C and less than 1 µM.
The matching figures for `CN(C)c1cccc(Oc2ccc([N+](=O)[O-])cc2S(=O)(=O)N2CCNCC2)c1.Cl` [Example 1-32]: 182 °C and 1 to 10 µM.
The compound `Cc1cc(C)cc(Oc2ccc([N+](=O)[O-])cc2S(=O)(=O)N2CC(C)NCC2C)c1.Cl` (stereo not drawn) [Example 1-54] showed a melting point of 159 °C. Moreover, the IC50 at Human CCR3 is less than 1 µM.
`Cl.O=[N+]([O-])c1cccc(Oc2ccc([N+](=O)[O-])cc2S(=O)(=O)N2CCNCC2)c1` [Example 1-38] had a melting point of 150 °C. For the same compound, the IC50 at Human CCR3 is less than 1 µM.
In the case of `Cc1cc(Oc2ccc([N+](=O)[O-])cc2S(=O)(=O)N2CCNCC2)cc(C(C)C)c1.Cl` [Example 1-8], the melting point was in the range of 182 to 185 °C. In addition, the IC50 at Human CCR3 was less than 1 µM.
Compound `Cc1cc(C)cc(Oc2ccc(C(=O)N3CCNCC3)cc2S(=O)(=O)N2CCNCC2)c1.Cl.Cl` [Example 1-42] came in with a melting point of 288 to 290 °C. Moreover, the 50% inhibitory concentration (IC50) at Human CCR3 was greater than 10 µM.
The matching figures for `Cl.O=[N+]([O-])c1ccc(Oc2cc(Cl)cc(Cl)c2)c(S(=O)(=O)N2CCNCC2)c1` [Example 1-33]: 260 to 264 °C and less than 1 µM.
The matching figures for `COc1cc(Oc2cc(C)cc(C)c2)c(S(=O)(=O)N2CCNCC2)cc1[N+](=O)[O-].Cl` [Example 1-47]: 188 °C and greater than 10 µM.
For `Cc1cc(C)cc(Oc2cc(C(F)(F)F)ccc2S(=O)(=O)N2CCNCC2)c1.Cl` [Example 1-46] the same measures were 250 to 251 °C and greater than 10 µM.
With `Cl.N[C@H]1CCN(S(=O)(=O)c2cc([N+](=O)[O-])ccc2Oc2cc(Cl)cc(Cl)c2)C1` [Example 1-100], the melting point was in the range of 256 to 258 °C. In addition, the IC50 at Human CCR3 is less than 1 µM.
The matching figures for `O=[N+]([O-])c1ccc(Oc2cc(Cl)cc(Cl)c2)c(S(=O)(=O)N2CC3CCCNC3C2)c1` (stereo not drawn) [Example 1-48]: 170 °C and less than 1 µM.
The matching figures for `COc1ccccc1Oc1ccc([N+](=O)[O-])cc1S(=O)(=O)N1CCNCC1.Cl` [Example 1-27]: 142 °C and less than 1 µM.
The matching figures for `CN(CCN1CCCCC1)S(=O)(=O)c1cc([N+](=O)[O-])ccc1Sc1cc(Cl)cc(Cl)c1` [Example 26-1, 2-[(3,5-dichlorophenyl)sulfanyl]-N-methyl-5-nitro-N-[2-(1-piperidinyl)ethyl]benzenesulfonamide]: 113 to 114 °C and less than 1 µM.
Compound `COc1cc(C)cc(Oc2ccc([N+](=O)[O-])cc2S(=O)(=O)N2CCNCC2)c1.Cl` [Example 1-37] gave a melting point of 113 °C. For the same compound, on Human CCR3, the IC50 was less than 1 µM.
The compound `Cl.O=S(=O)(c1cc(Br)ccc1Oc1cc(Cl)cc(Cl)c1)N1CCNCC1` [Example 1-57] came in with a melting point of 269 to 271 °C. The IC50 on Human CCR3 was less than 1 µM.
For `Cc1cc(Oc2cc(Cl)cc(Cl)c2)c(S(=O)(=O)N2CCNCC2)cc1[N+](=O)[O-].Cl` [Example 1-45] the same measures were 168 °C and less than 1 µM.
For `Cl.O=[N+]([O-])c1ccc(Oc2cc(Cl)cc(Cl)c2Cl)c(S(=O)(=O)N2CCNCC2)c1` [Example 1-86] the same measures were 188 to 189 °C and less than 1 µM.
With `Cc1ccc(C(C)C)c(Oc2ccc([N+](=O)[O-])cc2S(=O)(=O)N2CCNCC2)c1.Cl` [Example 1-66], the melting point was found to be 193 °C. For the same compound, the 50% inhibitory concentration (IC50) at Human CCR3 lay in the range of 1 to 10 µM.
With `Cl.Cl.Cl.Nc1ccc(Oc2ccc([N+](=O)[O-])cc2S(=O)(=O)N2CCNCC2)cc1` [Example 1-13], the melting point was 246 to 248 °C. Besides, the IC50 at Human CCR3 was greater than 10 µM.
For `Cc1ccccc1Oc1ccc([N+](=O)[O-])cc1S(=O)(=O)N1CCNCC1.Cl` [Example 1-12] the same measures were 167 to 169 °C and 1 to 10 µM.
The compound `Cc1cc(C)cc(Oc2ccccc2S(=O)(=O)N2CCNCC2)c1.Cl` [Example 1-41] showed a melting point of 205 to 207 °C. Also, the IC50 on Human CCR3 fell in the range of 1 to 10 µM.
The matching figures for `Cl.O=[N+]([O-])c1ccc(Oc2c(F)c(F)cc(F)c2F)c(S(=O)(=O)N2CCNCC2)c1` [Example 1-74]: 104 °C and less than 1 µM.
`Cl.N#Cc1cccc(Oc2ccc([N+](=O)[O-])cc2S(=O)(=O)N2CCNCC2)c1` [Example 1-10] registered a melting point of 265 to 267 °C. Also, at Human CCR3, the IC50 lay within 1 to 10 µM.
The matching figures for `Cl.O=[N+]([O-])c1ccc(Oc2cc(F)cc(F)c2)c(S(=O)(=O)N2CCNCC2)c1` [Example 1-4]: 273 to 274 °C and less than 1 µM.
